Results taken from US12528837B2, “Aryl substituted polymyxin derivatives” (priority 2018, dated 2026).
Values after ≈ are worked out from the molar mass of the structure shown. Where two headings read alike, the source gives them in different places. Where a SMILES comes first, the peptide text is derived from it. Bridges are numbered along the chain shown (N, C = ends). [ ]: non-standard residue; d: D form. The star is where a group is joined. X9 = CC(C)c1cccc([C@H](CN)CC(=O)*)c1; X16 = NC[C@H](CC(=O)*)Cc1cccc(Cl)c1; X13 = Cc1cccc([C@H](CN)CC(=O)*)c1; X15 = NC[C@@H](CC(=O)*)c1ccccc1Cl; Dab = NCC[C@H](N)C(=O)O; Dap = NC[C@H](N)C(=O)O

How the values were obtained:
Type in all cases: cell-based
[1] = test system: E. coli CA58
Description: (§1) The inoculum was prepared by making a direct suspension of isolated colonies (selected from an 18-24 hour Mueller-Hinton agar plate) adjusted to the 0.5 McFarland standard. […] The assays were performed in duplicate. […] Several of the compounds were subjected to multiple tests, and where this is the case, the MIC presented is the median value obtained. The MIC values are quoted in μg/mL.

[2] = test system: K. pneumoniae CA64
Description: as §1

[3] = test system: P. aeruginosa CCUG 59347
Description: as §1

[4] = test system: A. baumannii ATCC BAA-747
Description: (§2) The inoculum was prepared by making a direct suspension of isolated colonies (selected from an 18-24 hour Mueller-Hinton agar plate) adjusted to the 0.5 McFarland standard. […] The assays were performed in duplicate. […] The MIC values are quoted in μg/mL.

[5] = test system: A. baumannii NCTC 13424
Description: as §2

[6] = test system: E. coli ATCC 25922
Description: as §2

[7] = test system: K. pneumoniae ATCC 13822
Description: as §2

[8] = test system: P. aeruginosa ATCC 27853; settings: cation-adjusted Mueller-Hinton Broth, 18-20 h, 35° C.
Description: as §2

[9] = cation-adjusted Mueller-Hinton Broth, 18-20 h, 35° C.

MIC E. coli CA58 ([1]; CA58) [µg/mL]	MIC K. pneumoniae CA64 ([2]; CA64) [µg/mL]	MIC P. aeruginosa CCUG 59347 ([3]; CCUG 59347) [µg/mL]	MIC A. baumannii ATCC BAA-747 ([4]; ATCC BAA-747) [µg/mL]	MIC A. baumannii NCTC 13424 ([5]; NCTC 13424) [µg/mL]	MIC E. coli ATCC 25922 ([6]; ATCC 25922) [µg/mL]	MIC K. pneumoniae ATCC 13822 ([7]; ATCC 13822) [µg/mL]	Structure (SMILES)	MIC E. coli CA58 [1, 9] [µg/mL]	MIC K. pneumoniae CA64 [2, 9] [µg/mL]	MIC P. aeruginosa CCUG 59347 [3, 9] [µg/mL]	MIC A. baumannii ATCC BAA-747 [4, 9] [µg/mL]	MIC A. baumannii NCTC 13424 [5, 9] [µg/mL]	MIC E. coli ATCC 25922 [6, 9] [µg/mL]	MIC K. pneumoniae ATCC 13822 [7, 9] [µg/mL]	MIC P. aeruginosa ATCC 27853 [8] [µg/mL]
4 (≈ 3.45 µM)	8 (≈ 6.9 µM)	0.5 (≈ 0.431 µM)	0.25 (≈ 0.216 µM)	0.25 (≈ 0.216 µM)	0.5 (≈ 0.431 µM)	0.5 (≈ 0.431 µM)	CC(C)C[C@@H]1NC(=O)[C@@H](Cc2ccccc2)NC(=O)[C@H](CCN)NC(=O)[C@@H](NC(=O)[C@H](CN)NC(=O)[C@@H](NC(=O)C[C@@H](CN)Cc2cccc(Cl)c2)[C@@H](C)O)CCNC(=O)[C@H]([C@@H](C)O)NC(=O)[C@H](CCN)NC(=O)[C@H](CCN)NC1=O [Example 12, (S)-4-amino-3-(3- chlorobenzyl)butanoyl- Thr-Dap-Cyclo[Dab- Dab-DPhe-Leu-Dab- Dab-Thr]. Isomer 2] (X16-T[Dap][Dab][Dab][dF]L[Dab][Dab]T; lactam 3-C)	–	–	–	–	–	–	–	–
–	–	–	–	–	–	–	CC(C)C[C@@H]1NC(=O)[C@@H](Cc2ccccc2)NC(=O)[C@H](CCN)NC(=O)[C@@H](NC(=O)[C@H](CN)NC(=O)[C@@H](NC(=O)C[C@H](CN)c2ccccc2Cl)[C@@H](C)O)CCNC(=O)[C@H]([C@@H](C)O)NC(=O)[C@H](CCN)NC(=O)[C@H](CCN)NC1=O [Example 3, (S)-4-amino-3-(2- chlorophenyl)butanoyl- Thr-Dap-Cyclo[Dab- Dab-DPhe-Leu-Dab- Dab-Thr]] (X15-T[Dap][Dab][Dab][dF]L[Dab][Dab]T; lactam 3-C)	32 (≈ 28 µM)	65 (≈ 56.8 µM)	0.5 (≈ 0.437 µM)	2 (≈ 1.75 µM)	1 (≈ 0.874 µM)	1 (≈ 0.874 µM)	0.5 (≈ 0.437 µM)	0.5 (≈ 0.437 µM)
–	–	–	–	–	–	–	Cc1cccc([C@H](CN)CC(=O)N[C@H](C(=O)N[C@@H](CN)C(=O)N[C@H]2CCNC(=O)[C@H]([C@@H](C)O)NC(=O)[C@H](CCN)NC(=O)[C@H](CCN)NC(=O)[C@H](CC(C)C)NC(=O)[C@@H](Cc3ccccc3)NC(=O)[C@H](CCN)NC2=O)[C@@H](C)O)c1 [Example 22, (R)-4-amino-3-(m- toly)butanoyl-Thr- Dap-Cyclo[Dab-Dab- DPhe-Leu-Dab-Dab- Thr]] (X13-T[Dap][Dab][Dab][dF]L[Dab][Dab]T; lactam 3-C)	16 (≈ 14.2 µM)	8 (≈ 7.12 µM)	0.5 (≈ 0.445 µM)	1 (≈ 0.889 µM)	1 (≈ 0.889 µM)	0.25 (≈ 0.222 µM)	0.25 (≈ 0.222 µM)	0.25 (≈ 0.222 µM)
–	–	–	–	–	–	–	CC(C)C[C@H]1NC(=O)[C@H](CCN)NC(=O)[C@@H](NC(=O)[C@H](CN)NC(=O)[C@@H](NC(=O)C[C@@H](CN)c2cccc(C(C)C)c2)[C@@H](C)O)CCNC(=O)[C@H]([C@@H](C)O)NC(=O)[C@H](CCN)NC(=O)[C@H](CCN)NC(=O)[C@H]([C@@H](C)O)NC1=O [Example 20, (R)-4-amino-3-(3- isopropylphenyl) butanoyl-Thr-Dap- Cyclo[Dab-Dab-DLeu- Thr-Dab-Dab-Thr]] (X9-T[Dap][Dab][Dab][dL]T[Dab][Dab]T; lactam 3-C)	64 (≈ 57.8 µM)	64 (≈ 57.8 µM)	2 (≈ 1.81 µM)	2 (≈ 1.81 µM)	1 (≈ 0.904 µM)	1 (≈ 0.904 µM)	2 (≈ 1.81 µM)	0.5 (≈ 0.452 µM)
